In patent US20240226030A1, “COMPOSITIONS AND METHODS USING AT LEAST ONE OF INOSITOL, ERYTHRITOL OR SORBITOL TO ENHANCE GROWTH OF FAECALIBACTERIUM PRAUSNITZII” (SOCIÉTÉ DES PRODUITS NESTLE S.A., priority 2021, published 2024):

Key:
F. prausnitzii [1] = test: Model organism test of sugar alcohols as energy substrate for F. prausnitzii; format: cell-based, Faecalibacterium prausnitzii; conditions: FIGS. 4A and 4B
Source text: Using a model organism, the effect of inositol and sorbitol as energy substrate for F. prausnitzii was confirmed (FIGS. 4A and 4B), but not xylitol. Thus, all sugar alcohols cannot be assumed to have the same effect on F. prausnitzii.

F. prausnitzii [2] = test: Growth of F. prausnitzii with added vitamins, glucose as substrate; format: cell-based, Faecalibacterium prausnitzii; conditions: FIG. 6D

Compound | effect as energy substrate for F. prausnitzii (F. prausnitzii [1]) | growth of F. prausnitzii compared with control (F. prausnitzii [2])
OC[C@@H](O)[C@@H](O)CO [erythritol] | confirmed | –
O[C@H]1[C@H](O)[C@@H](O)[C@H](O)[C@@H](O)[C@H]1O [inositol] | confirmed | –
OC[C@@H](O)[C@@H](O)[C@H](O)[C@@H](O)CO [sorbitol] | confirmed | –
OC[C@@H](O)[C@H](O)[C@@H](O)CO [xylitol, reference compound] | not | –
Vitamin B12 | – | more than control
